This data set relates to hTERT keratinocytes. It counts as cell-based. As to the method: To ensure proper levels of the biological active molecules for the in vitro study, dilution studies were conducted and ATP was analyzed for the highest non-cytotoxic concentration. Olivem 460 (lot LG0833 from B&T, Milan Italy) at a level of 0.000156% and SymRelief (from Symrise) at a level of 0.0625% were determined to be appropriate respective concentrations for this study. ATP analysis is described below.
ATP analysis was conducted using Cell Titer-Glo. The CellTiter-Glo Luminescent Cell Viability Assay was obtained from Promega Corporation (Madison, Wis.). This assay is a homogeneous method for determining the number of viable cells in culture based on quantitation of ATP present, signaling the presence of metabolically active cells. After the final treatment and supernatants collected, the CellTiter-Glo reagent was added. The reagent was then transferred to a BD Falcon (Franklin Lakes, N.J.) Microtest 96-well Assay Plate (black, flat bottom, reference 353945, lot 041151). Luminescence was read on a Perkin Elmer Fluorimeter (Wallac Envision 2101 Multilabel Reader). Relative luminescence units were plotted in percent control versus treatment concentration.

Here are results for two substances from patent US9585823B2, “Personal care compositions comprising a multi-active system for down regulating cytokines irritation” (The Gillette Company, priority 2010, dated 2017).

Regarding “Bisabolol (and) Zingiber Officinale Root Extract [SymRelief]”, the “highest non-cytotoxic concentration (level determined appropriate for the study)” value stood at 0.0625%.
Consider “Sodium PEG-7 Olive Oil Carboxylate [Olivem 460]”, for which the “highest non-cytotoxic concentration (level determined appropriate for the study)” value came out at 0.000156%.
